The target in assay [1] is T1, GppNp-loaded HIS-KRAS(G12D, aa 1-169) and cRAF RBD (Homo sapiens, UniProt P01116, G12D).
T1 construct: GppNp-loaded HIS-KRAS(G12D, aa 1-169)
Description: GTP-KRAS and cRAF interaction assay (HTRF). The format is biochemical. Particulars: 2 hours at 25° C. Here is the method:
GppNp-loaded HIS-KRAS(G12D, aa 1-169) was pre-incubated with a compound in the presence of 200 μM GTP in a 384-well plate (Greiner) for 15 min, then cRAF RBD(GST tag, aa 50-132, CreativeBioMart), MAb Anti GST-d2 (Cisbio) and MAb Anti 6HIS-Tb cryptate Gold (Cisbio) were added to the assay wells (Final concentration: 2.0 nM GppNp-loaded HIS-KRAS(G12D), 100 μM GTP, 35 nM cRAF RBD, 1 μg/mL MAb Anti GST-d2, 52.5 ng/mL MAb Anti 6HIS-Tb cryptate Gold) and incubated for 2 hours at 25° C. Wells containing same percent of DMSO served as vehicle control, and wells without KRAS served as low control. HTRF signals were read on Tecan Spark multimode microplate reader and HTRF ratios were calculated under manufacturer's instructions. The percent of activation of compounds treated wells were normalized between vehicle control and low control (% Activation=(HTRF ratioCompound treated−HTRF ratioLow control)/(HTRF ratioVehicle control−HTRF ratioLow control)*100%). Then the data were analyzed by fitting a 4-parameter logistic model or calculating in Excel to calculate IC50 values.

Assay [2] concerns the target T2, GDP-loaded HIS-KRAS(G12D, aa 1-169) (Homo sapiens, UniProt P01116, G12D).
T2 construct: GDP-loaded HIS-KRAS(G12D, aa 1-169)
As to the kind of experiment: SOS1 catalyzed nucleotide exchange assay (TR-FRET). Type of assay: biochemical. Particulars: 4 hours at 25° C. Here is the method: GDP-loaded HIS-KRAS(G12D, aa 1-169) was pre-incubated with a compound in the presence of 10 nM GDPin a 384-well plate (Greiner) for 15 min, then purified SOS1 ExD(Flag tag, aa 564-1049), BODIPY™ FL GTP (Invitrogen) and MAb (monoclonal antibody) Anti 6HIS-Tb cryptate Gold (Cisbio) were added to the assay wells (Final concentration: 1.5 nM GDP-loaded HIS-KRAS(G12D), 5 nM GDP, 0.5 μM SOS1 ExD, 80 nM BODIPY™ FL GTP, 52.5 ng/mL MAb Anti 6HIS-Tb cryptate Gold) and incubated for 4 hours at 25° C. Wells containing same percent of DMSO served as vehicle control, and wells without KRAS served as low control. TR-FRET signals were read on Tecan Spark multimode microplate reader. The parameters were F486: Excitation 340 nm, Emission 486 nm, Lag time 100 μs, Integration time 200 μs; F515: Excitation 340 nm, Emission 515 nm, Lag time 100 μs, Integration time 200 μs. TR-FRET ratios for each individual wells were calculated by equation: TR-FRET ratio=(Signal F515/Signal F486)*10000. The percent of activation of compounds treated wells were normalized between vehicle control and low control (% Activation=(TR-FRET ratioCompound treated−TR-FRET ratioLow control)/(TR-FRET ratioVehicle control−TR-FRET ratioLow control)*100%). Then the data were analyzed by fitting a 4-parameter logistic model or calculating in Excel to calculate IC50 values.

In assay [3] the test system is AGS cells expressing KRAS G12D. Description: Phospho-ERK1/2(THR202/TYR204) HTRF assay. Type of assay: cell-based. Conditions: Homo sapiens; Phospho-ERK1/2 in AGS cells, 2 hours incubation. Here is the method:
AGS cells expressing KRAS G12D were cultured in F12K medium (Gibco) containing 10% fetal bovine serum (Gibco). The AGS cells in culture medium were seeded in 96-well plates at a concentration of 40,000 cells/well and then put in a 37° C./5% CO2 cell incubator to incubate overnight. The next day, culture medium was removed and the compound diluted in assay medium (F12K, 0.1% FBS) was added in each well. After 2 hours incubation in a 37° C./5% CO2 cell incubator, the assay medium in 96-well plates was removed, then 50 μL of 1× blocking reagent-supplemented lysis buffer (Cisbio) was added and the plates were incubated at 25° C. for 45 min with shaking. 10 μL of cell lysates from the 96-well plates were transferred to a 384-well plate (Greiner) containing 2.5 μL/well HTRF® pre-mixed antibodies (Cisbio 64AERPEH). Incubate 4 hours at 25° C. and then read HTRF signals on Tecan Spark multimode microplate reader. The data were analyzed using a 4-parameter logistic model to calculate IC50 values.

Assay [4] concerns AsPC-1. Description: Cell growth inhibition assay, AsPC-1 (CellTiter-Glo). Particulars: Homo sapiens, ASPC1, 144 h; AsPC-1 cell viability, 6 days incubation. The format is cell-based. How it is done: AsPC-1 cultured in RPMI-1640 medium (Gibco) containing 10% fetal bovine serum (Gibco). Cells in culture medium were plated in 96-well plates at a concentration of 1000 cells/well (100 μL/well) and allowed to attach overnight.
(§1) The next day, compounds were diluted in culture medium and added to the plates. After 6 days incubation in a 37° C./5% CO2 cell incubator, the cell viability was detected by CellTiter-Glo® Luminescent Cell Viability Assay kit (Promega). Luminescent signals were read on Tecan Spark multimode microplate reader and analyzed using a 4-parameter logistic model to calculate IC50 values.

Assay [5] concerns AGS. Description: Cell growth inhibition assay, AGS (CellTiter-Glo). Type of assay: cell-based. Particulars: Homo sapiens, 144 h; AGS cell viability, 6 days incubation. How it is done: AGS cultured in F12K medium (Gibco) containing 10% fetal bovine serum (Gibco). Cells in culture medium were plated in 96-well plates at a concentration of 500 cells/well (100 μL/well) and allowed to attach overnight.
as §1

Bounds are passed on as bounds.

T2 sequence (P01116 1-169 isoform P01116-2 G12D): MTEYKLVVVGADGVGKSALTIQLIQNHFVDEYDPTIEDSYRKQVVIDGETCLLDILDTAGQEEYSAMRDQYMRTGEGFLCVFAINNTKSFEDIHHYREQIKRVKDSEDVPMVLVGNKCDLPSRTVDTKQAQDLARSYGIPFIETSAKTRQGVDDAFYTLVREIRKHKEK
T1 sequence (P01116 1-169 isoform P01116-2 G12D): as above

Regarding `C#Cc1cccc2cc(O)cc(-c3c(F)cc4c(N5CC6CCC(C5)N6)nc(OCC5(CN6CCOC7(CC7)C6)CC5)nc4c3F)c12` (single isomer, unassigned) [Compound 2A], the IC50 in assay [1] is above 10000 nM; in assay [2] it was above 100 nM.
For `C#Cc1cccc2cc(O)cc(-c3c(F)cc4c(N5CC6CCC(C5)N6)nc(OCC5(CN6CCC7(CC6)CC7(F)F)CC5)nc4c3F)c12` (single isomer, unassigned) [Compound 3A] the same measures were 9080 nM and above 100 nM.
Regarding `C#Cc1c(F)ccc2cc(O)cc(-c3c(Cl)cc4c(N5CC6CCC(C5)N6)nc(OCC5(CN6CC7CC6CO7)CC5)nc4c3F)c12` (single isomer, unassigned) [Compound 4A], the IC50 in assay [1] was found to be 1570 nM; in assay [2], 244 nM.
Consider `C#Cc1c(F)ccc2cc(O)cc(-c3c(Cl)cc4c(N5CC6CCC(C5)N6)nc(OCC5(CN6CC7CC6CO7)CC5)nc4c3F)c12` (single isomer, unassigned) [Compound 4B], for which the IC50 worked out at 9.19 nM in assay [1] and 0.31 nM in assay [2].
As for `C#Cc1cccc2cc(O)cc(-c3c(F)cc4c(N5CC6CCC(C5)N6)nc(OCC5(CN6CC7CC6CO7)CC5)nc4c3F)c12` (single isomer, unassigned) [Compound 13A], the concentration for half-maximal inhibition (IC50) in assay [1] is above 10000 nM; in assay [3], 271 nM; in assay [2], above 100 nM.
With `C#Cc1cccc2cc(O)cc(-c3c(F)cc4c(N5CC6CCC(C5)N6)nc(OCC5(CN6CC7CC6CO7)CC5)nc4c3F)c12` (single isomer, unassigned) [Compound 36A], the IC50 in assay [1] is 20.2 nM; in assay [2], above 100 nM.
For the molecule `C#Cc1cccc2cc(O)cc(-c3c(F)cc4c(N5CC6CCC(C5)N6)nc(OCC5(CN6CCC6)CC5)nc4c3F)c12` [Compound 1], the results for the IC50 in assay [1], in assay [3] and in assay [2] were 247 nM, 58.3 nM and 5.41 nM, respectively.
With `C#Cc1cccc2cc(O)cc(-c3c(F)cc4c(N5CC6CCC(C5)N6)nc(OCC5(CN6CCOC7(CC7)C6)CC5)nc4c3F)c12` [Compound 2], the IC50 amounted to 228 nM in assay [1] and 26 nM in assay [2].
`C#Cc1c(F)ccc2cc(O)cc(-c3c(Cl)cc4c(N5CC6CCC(C5)N6)nc(OCC5(CN6C[C@@H]7C[C@H]6CO7)CC5)nc4c3F)c12` [Compound 4]: in assay [3], the IC50 was 38.8 nM.
On to `C#Cc1cccc2cc(O)cc(-c3c(F)cc4c(N5CC6CCC(C5)N6)nc(OCC5(CN6CCCC7(C6)CC7(F)F)CC5)nc4c3F)c12` (stereo not drawn) [Compound 5], for which the IC50 in assay [4] worked out at 62.1 nM; in assay [5], 21 nM; in assay [1] it was 310 nM; in assay [2] it was 55.5 nM.
With `C#Cc1cccc2cc(O)cc(-c3c(F)cc4c(N5CC6CCC(C5)N6)nc(OCC5(CN6CCOC7(CCC7)C6)CC5)nc4c3F)c12` [Compound 6], the results for the IC50 in assay [1] and in assay [2] were 437 nM and 66.2 nM, respectively.
In the case of `C#Cc1cccc2cc(O)cc(-c3c(F)cc4c(N5CC6CCC(C5)N6)nc(OCC5(CN6CC7CC6CO7)CC5)nc4c3F)c12` (stereo not drawn) [Compound 13], the IC50 in assay [2] stood at 12 nM.
As to `C#Cc1cccc2cc(O)cc(-c3c(F)cc4c(N5CC6CCC(C5)N6)nc(OCC5(CN6CCc7ccccc7C6)CC5)nc4c3F)c12` [Compound 16], in assay [2], the IC50 came to 27.3 nM.
As for `C#Cc1cccc2cc(O)cc(-c3c(F)cc4c(N5CC6CCC(C5)N6)nc(OCC5(CN6CC7(CC(O)C7)C6)CC5)nc4c3F)c12` [Compound 18], the IC50 in assay [1] is 77.8 nM; in assay [2], 0.975 nM.
Take `C#Cc1cccc2cc(O)cc(-c3ccc4c(N5CC6CCC(C5)N6)nc(OCC5(Cc6ccccn6)CC5)nc4c3F)c12` [Compound 23]: the values for the IC50 in assay [1] and in assay [2] were above 10000 nM and above 100 nM, respectively.
`C#Cc1cccc2cc(O)cc(-c3c(F)cc4c(N5CC6CCC(C5)N6)nc(OCC5(CN6CC(O)C6)CC5)nc4c3F)c12` [Compound 26]: the figures for the IC50 in assay [1], in assay [3] and in assay [2] were 113 nM, 56.3 nM and 2.58 nM, respectively.
As for `C#Cc1cccc2cc(O)cc(-c3c(F)cc4c(N5CC6CCC(C5)N6)nc(OCC5(CN6CC(C)(O)C6)CC5)nc4c3F)c12` [Compound 29], the figures for the IC50 in assay [1], in assay [3] and in assay [2] were 71.6 nM, 25 nM and 3.5 nM, respectively.
In the case of `C#Cc1c(F)ccc2cc(O)cc(-c3c(C(C)C)cc4c(N5CC6CCC(C5)N6)nc(OCC5(CN6C[C@@H]7C[C@H]6CO7)CC5)nc4c3F)c12` [Compound 38], the 50% inhibitory concentration (IC50) in assay [1] was determined as 5.82 nM; in assay [2], 1.15 nM.
The like results for `C#Cc1c(F)ccc2cc(O)cc(-c3c(C(F)(F)F)cc4c(N5CC6CCC(C5)N6)nc(OCC5(CN6C[C@@H]7C[C@H]6CO7)CC5)nc4c3F)c12` [Compound 40] were, in that order, 8.09 nM and 1.29 nM.
For `C#Cc1c(F)ccc2cc(O)cc(-c3c(C#N)cc4c(N5CC6CCC(C5)N6)nc(OCC5(CN6C[C@@H]7C[C@H]6CO7)CC5)nc4c3F)c12` [Compound 41] the same measures were 7.18 nM and 1.04 nM.
For the molecule `C#Cc1c(F)ccc2cc(O)cc(-c3c(SC(F)(F)F)cc4c(N5CC6CCC(C5)N6)nc(OCC5(CN6C[C@@H]7C[C@H]6CO7)CC5)nc4c3F)c12` [Compound 42], the IC50 amounted to 4.04 nM in assay [1] and 0.97 nM in assay [2].
Take `CCc1c(F)ccc2cc(O)cc(-c3c(C(F)(F)F)cc4c(N5CC6CCC(C5)N6)nc(OCC5(CN6C[C@@H]7C[C@H]6CO7)CC5)nc4c3F)c12` [Compound 43]: the IC50 in assay [1] turned out to be 436 nM; in assay [2] it was 4.64 nM.
Take `C#Cc1cccc2cc(O)cc(-c3c(F)cc4c(N5CC6CCC(C5)N6)nc(OCC5(CN6CC7(CCCO7)C6)CC5)nc4c3F)c12` [Compound 44]: the IC50 in assay [2] is 35.7 nM.
Regarding `C#Cc1cccc2cc(O)cc(-c3c(F)cc4c(N5CC6CCC(C5)N6)nc(OCC5(CN6CC7(CC(OC)C7)C6)CC5)nc4c3F)c12` [Compound 49], the IC50 in assay [1] came to 73.2 nM; in assay [3], 46.4 nM; in assay [2], 3.95 nM.
Regarding `C#Cc1cccc2cc(O)cc(-c3c(F)cc4c(N5CC6CCC(C5)N6)nc(OCC5(CN6CCn7cncc7C6)CC5)nc4c3F)c12` [Compound 53], the IC50 in assay [1] came to 818 nM; in assay [3], 80.3 nM; in assay [2], 2.59 nM.
Regarding `C#Cc1cccc2cc(O)cc(-c3c(F)cc4c(N5CC6CCC(C5)N6)nc(OCC5(CN6C7COCC6C7)CC5)nc4c3F)c12` [Compound 57], the concentration for half-maximal inhibition (IC50) in assay [1] was determined as 439 nM; in assay [3] it was 46.3 nM; in assay [2] it was 6.81 nM.

The values above are taken from patent US20240025918A1, “KRAS G12D Inhibitors” (Jacobio Pharmaceuticals Co., Ltd, priority 2020, published 2024).
